Experimental data reported in the NIST ThermoML archive (doi:10.1021/je300945r).

F/C=C/C(F)(F)F [trans-1,3,3,3-tetrafluoropropene]
Settings	mass density [kg/m3]
323.14 K, 8751 kPa, Liquid, Vibrating tube method	1126.4
323.14 K, 9772 kPa, Liquid, Vibrating tube method	1131.9
323.14 K, 12808 kPa, Liquid, Vibrating tube method	1147.2
323.14 K, 13808 kPa, Liquid, Vibrating tube method	1151.8
323.14 K, 14826 kPa, Liquid, Vibrating tube method	1156.4
323.14 K, 15836 kPa, Liquid, Vibrating tube method	1160.8
323.14 K, 16839 kPa, Liquid, Vibrating tube method	1165
323.14 K, 17853 kPa, Liquid, Vibrating tube method	1169.1
323.14 K, 18870 kPa, Liquid, Vibrating tube method	1173.1
323.14 K, 19877 kPa, Liquid, Vibrating tube method	1177
323.14 K, 20888 kPa, Liquid, Vibrating tube method	1180.8
323.14 K, 25937 kPa, Liquid, Vibrating tube method	1198.3
323.14 K, 26941 kPa, Liquid, Vibrating tube method	1201.5
323.14 K, 29967 kPa, Liquid, Vibrating tube method	1210.9
323.15 K, 10784 kPa, Liquid, Vibrating tube method	1137.3
323.15 K, 11798 kPa, Liquid, Vibrating tube method	1142.3
323.15 K, 21901 kPa, Liquid, Vibrating tube method	1184.5
323.15 K, 22914 kPa, Liquid, Vibrating tube method	1188
323.15 K, 23918 kPa, Liquid, Vibrating tube method	1191.5
323.15 K, 24922 kPa, Liquid, Vibrating tube method	1194.9
323.15 K, 27947 kPa, Liquid, Vibrating tube method	1204.7
323.15 K, 28950 kPa, Liquid, Vibrating tube method	1207.8
323.15 K, 30984 kPa, Liquid, Vibrating tube method	1213.9
323.15 K, 31990 kPa, Liquid, Vibrating tube method	1216.9
323.15 K, 33002 kPa, Liquid, Vibrating tube method	1219.7
323.15 K, 34015 kPa, Liquid, Vibrating tube method	1222.6
324.12 K, 770.9 kPa, Gas, isochoric method	38.462
324.12 K, 771 kPa, Gas, isochoric method	38.462
325.11 K, 605.5 kPa, Gas, isochoric method	28.571
333.07 K, 79.2 kPa, Gas, isochoric method	3.311
333.07 K, 288 kPa, Gas, isochoric method	12.346
333.07 K, 488.2 kPa, Gas, isochoric method	21.739
333.08 K, 180.4 kPa, Gas, isochoric method	7.634
333.09 K, 428.5 kPa, Gas, isochoric method	19.231
333.09 K, 624.8 kPa, Gas, isochoric method	28.571
333.09 K, 685.9 kPa, Gas, isochoric method	32.258
333.09 K, 801.3 kPa, Gas, isochoric method	38.462
333.09 K, 801.4 kPa, Gas, isochoric method	38.462
333.09 K, 875.5 kPa, Gas, isochoric method	43.478
333.1 K, 875.5 kPa, Gas, isochoric method	43.478
333.15 K, 10813 kPa, Liquid, Vibrating tube method	1108.1
333.15 K, 15858 kPa, Liquid, Vibrating tube method	1134.8
333.15 K, 17873 kPa, Liquid, Vibrating tube method	1144.2
333.15 K, 18876 kPa, Liquid, Vibrating tube method	1148.5
333.15 K, 19891 kPa, Liquid, Vibrating tube method	1152.9
333.15 K, 20898 kPa, Liquid, Vibrating tube method	1157
333.15 K, 21900 kPa, Liquid, Vibrating tube method	1161
333.15 K, 22913 kPa, Liquid, Vibrating tube method	1165
333.15 K, 23923 kPa, Liquid, Vibrating tube method	1168.8
333.15 K, 24932 kPa, Liquid, Vibrating tube method	1172.5
333.15 K, 25940 kPa, Liquid, Vibrating tube method	1176.1
333.15 K, 26944 kPa, Liquid, Vibrating tube method	1179.7
333.15 K, 27958 kPa, Liquid, Vibrating tube method	1183
333.15 K, 28967 kPa, Liquid, Vibrating tube method	1186.4
333.15 K, 29982 kPa, Liquid, Vibrating tube method	1189.8
333.15 K, 30988 kPa, Liquid, Vibrating tube method	1193
333.15 K, 31995 kPa, Liquid, Vibrating tube method	1196.1
333.15 K, 33006 kPa, Liquid, Vibrating tube method	1199.3
333.15 K, 34013 kPa, Liquid, Vibrating tube method	1202.3
333.16 K, 1380 kPa, Liquid, Vibrating tube method	1031.7
333.16 K, 1683 kPa, Liquid, Vibrating tube method	1035.2
333.16 K, 2698 kPa, Liquid, Vibrating tube method	1046.3
333.16 K, 3721 kPa, Liquid, Vibrating tube method	1056.4
333.16 K, 4755 kPa, Liquid, Vibrating tube method	1065.6
333.16 K, 5766 kPa, Liquid, Vibrating tube method	1073.9
333.16 K, 6767 kPa, Liquid, Vibrating tube method	1081.5
333.16 K, 7784 kPa, Liquid, Vibrating tube method	1088.8
333.16 K, 8801 kPa, Liquid, Vibrating tube method	1095.7
333.16 K, 9801 kPa, Liquid, Vibrating tube method	1102
333.16 K, 11831 kPa, Liquid, Vibrating tube method	1114
333.16 K, 12847 kPa, Liquid, Vibrating tube method	1119.5
333.16 K, 13849 kPa, Liquid, Vibrating tube method	1124.8
333.16 K, 14855 kPa, Liquid, Vibrating tube method	1129.9
333.16 K, 16870 kPa, Liquid, Vibrating tube method	1139.6
343.03 K, 81.6 kPa, Gas, isochoric method	3.3
343.03 K, 297.5 kPa, Gas, isochoric method	12.346
343.04 K, 81.7 kPa, Gas, isochoric method	3.3
343.04 K, 186.1 kPa, Gas, isochoric method	7.634
343.04 K, 505.6 kPa, Gas, isochoric method	21.739
343.04 K, 648.5 kPa, Gas, isochoric method	28.571
343.05 K, 443.5 kPa, Gas, isochoric method	19.231
343.06 K, 713 kPa, Gas, isochoric method	32.258
343.06 K, 713.1 kPa, Gas, isochoric method	32.258
343.06 K, 913.4 kPa, Gas, isochoric method	43.478
343.06 K, 913.5 kPa, Gas, isochoric method	43.478
343.15 K, 834.9 kPa, Gas, isochoric method	38.462
343.15 K, 835 kPa, Gas, isochoric method	38.462
343.15 K, 1625 kPa, Liquid, Vibrating tube method	984.2
343.15 K, 2607 kPa, Liquid, Vibrating tube method	999.1
343.15 K, 3648 kPa, Liquid, Vibrating tube method	1012.8
343.15 K, 4690 kPa, Liquid, Vibrating tube method	1024.7
343.15 K, 5696 kPa, Liquid, Vibrating tube method	1035.1
343.15 K, 6697 kPa, Liquid, Vibrating tube method	1044.5
343.15 K, 7717 kPa, Liquid, Vibrating tube method	1053.2
343.15 K, 8731 kPa, Liquid, Vibrating tube method	1061.4
